Results taken from patent publication US10232026B2, “Vaccine for mycoplasma infection” (NATIONAL INSTITUTE OF INFECTIOUS DISEASES, priority 2009, dated 2019).

Tested on: human peripheral-blood mononuclear cells
Test: Interferon γ production by peripheral-blood mononuclear cells with interleukin 2 (ELISA)
Type: cell-based
Conditions: lipid antigen added with interleukin 2, supernatant ELISA
Procedure: It was found out that the production amount of interferon γ increased by 2 folds or more when mycoplasma-mimic particles (GGPL-I, GGPL-III) were added as compared with administration of interleukin 2 alone using human peripheral-blood mononuclear cells. The mononuclear cells were separated from the peripheral blood of a healthy individual, and a sample in which interleukin 2 and the lipid antigen were added to the mononuclear cells, and a sample of the mononuclear cells without adding the lipid antigen were cultured, and supernatants thereof were recovered, and the amounts of interferon γ in the supernatants were measured with an enzyme antibody immune method (ELISA method).
Mononuclear cells were separated from the peripheral blood of a healthy individual. A sample in which interleukin 2 and mycoplasma-mimic particles (GGPL-I, or GGPL-III) were added to the mononuclear cells, and a sample of the mononuclear cells with no addition of the mycoplasma-mimic particles were cultured, and supernatants thereof were recovered, and the amounts of interferon γ in the supernatant were measured with an enzyme antibody immune method (ELISA method).
Mononuclear cells were separated from the peripheral blood of a healthy individual. […]

CCCCCCCCCCCCCCCC(=O)OC[C@H](CO[C@H]1O[C@H](COP(=O)(O)OCC(N)COP(=O)(O)OCC[N+](C)(C)C)[C@@H](O)[C@H](O)[C@H]1O)OC(=O)CCCCCCCCCCCCCCC (stereo partly shown) [GGPL-III]
production amount of interferon γ in comparison with no addition of the lipid antigen: remarkably increased
